Data reported in paper PMC9585577, “Oxyresveratrol and Gnetol Glucuronide Metabolites: Chemical Production, Structural Identification, Metabolism by Human and Rat Liver Fractions, and In Vitro Anti-inflammatory Properties” (Journal of Agricultural and Food Chemistry, 2022).
Like-named read-outs stand apart in the source and are kept apart here.

Experiments:
human liver S9 fractions = assay: In vitro glucuronidation by human hepatic S9 fractions; format: in vitro ADME; details: for Vmax: human S9 0.5 mg/mL
Description: (§1) To study the production of glucuronide metabolites in vitro, human and rat S9 hepatic fractions were used. To ensure that the formation rates of metabolites were linear over the incubation time and at the concentration of protein, a series of preliminary experiments was performed to optimize the reactions.
(§2) Glucuronidation was studied by incubation of human or rat liver S9 fractions (0.5 mg/mL) with ORV or GN at different concentrations (0–3000 μM) in Tris–HCl buffer (50 mM, pH 7.4) in the presence of UDPGA (1 mM), alamethicin (25 μg/mL), and MgCl2 (5 mM). All samples were prepared in Eppendorf tubes in a final volume of 100 μL. After 15 min at 37 °C, 100 μL of methanol (100%) was incorporated to stop the reaction and precipitate the proteins. Finally, samples were centrifuged for 30 min at 14000g and 4 °C, and the supernatants were analyzed by UPLC–DAD–MS. Analysis were carried out using 1290 Infinity UPLC (Agilent Technologies, Courtaboeuf, France). The UPLC system was coupled to an Esquire 3000 Plus ion trap mass spectrometer using an ESI source (Bruker-Daltonics, Billerica, MA, U.S.A.). A total of 2 μL was injected into an Agilent SB-C18 column (1.8 μm, 2.1 × 100 mm). Samples were eluted with solvent A (H2O/0.1% formic acid) and solvent B (acetonitrile/0.1% formic acid) with the following gradient program: 10% B (from 0 to 1.7 min), 10–20% B (from 1.7 to 3.4 min), 20–30% B (from 3.4 to 5.1 min), 30% B (from 5.1 to 7.8 min), 30–35% B (from 7.8 to 9.5 min), 35–60% B (from 9.5 to 11.9 min), 60–100% B (from 11.9 to 15.3 min), 100% B (from 15.3 to 17 min), and 100–10% B (from 17 to 17.3 min). The flow rate was set at 0.4 mL/min, and the UV detector was set at wavelengths of 280 and 320 nm. Total ion chromatograms were obtained using negative mode with a range of m/z 130–1400. The parameters were as follows: capillary voltage, +4 kV; nebulizer pressure, 40 psi; dry gas, 10 L/min; and dry temperature, 365 °C. Data analysis was performed with Bruker Data Analysis 3.2 (Bruker-Daltonics, Billerica, MA, U.S.A.). Metabolite concentrations were quantified with the corresponding standard curve of ORV and GN glucuronides previously obtained by hemisynthesis.
(§3) The kinetic parameters, Km, Vmax, and Ki, were calculated using the GraphPad Prism software (version 6.01) (substrate inhibition as the kinetic model). The data obtained from MTT, NO, ROS, IL-1β, and TNF-α production were subjected to one-way analysis of variance (ANOVA). A comparison between LPS and the different tested concentrations of ORV, GN, and their glucuronide metabolites was performed using Dunnet’s test, and p < 0.05 was considered significant (GraphPad Prism software, version 6.01).
(§4) An important objective of this work was to study the in vitro metabolization of t-ORV and t-GN in rat and human species using S9 hepatic fractions. To this end, both stilbene monomers were incubated (37 °C, 15 min) at different concentrations (0–3000 μM) with human and rat S9 fractions (0.5 mg/mL) in the presence of UDPGA as a co-substrate of phase II enzymes. Then, samples were injected into a HPLC–DAD–MS system to identify and quantify the in vitro generated metabolites.

rat liver S9 fractions = assay: In vitro glucuronidation by rat hepatic S9 fractions; format: in vitro ADME; details: for Vmax: rat S9 0.5 mg/mL
Description: as §1, §2, §3, §4

macrophages = system: macrophages; parameters: method as in PMID 24257684; details: macrophages ref 37; cited from earlier work
RAW 264.7 cells [1] = assay: MTT cell viability; format: cell-based, murine; details: 24 h, 5–200 μM tested
Description: (§5) RAW 264.7 cells were cultured in DMEM containing 10% FBS and maintained in a humidified incubator set at 37 °C with 5% CO2. For all following assays, cells were subcultured at a density of 40 000 cells per well in 96 well culture plates with 200 μL of the above-described culture medium. After 24 h, cells were incubated with ORV, GN, and their glucuronide metabolites (5–200 μM) in RPMI medium supplemented with glutamine (4 mM) in the presence or absence of LPS (0.1 μg/mL) (200 μL final volume per well). For MTT, NO, ROS, IL-1β, and TNF-α (n = 4), each experiment was performed in triplicate separately.
The MTT colorimetric assay was performed to assess the cell viability of cells after being treated with ORV, GN, and their glucuronide metabolites. After 24 h of treatment, RAW 264.7 cells were incubated with 0.5 mg/mL MTT during 3 h at 37 °C. The formazan crystals formed were dissolved with 100 μL of dimethyl sulfoxide (DMSO), and the plate was then incubated in the darkness for 30 min. Finally, the absorbance was measured at 595 nm using a microplate reader (FLUOstar Optima, BMG Labtech).

[2] = system: NO production in LPS-stimulated RAW 264.7 cells; assay: NO measurement (Griess) in LPS-stimulated macrophages; format: cell-based, murine; details: for reduction of NO production: 50 μM, versus LPS alone
Description: as §5
After 24 h of treatment of RAW 264.7 cells with ORV, GN, and their glucuronide metabolites, 70 μL of supernatant was mixed with 70 μL of Griess solution. After 15 min in darkness, the absorbance was measured at 550 nm using a microplate reader (FLUOstar Optima, BMG Labtech). A calibration curve of NO2 (0–100 μM) was used for quantification. Data were expressed as NO production (μM) compared to cells treated only with LPS (positive control).

[3] = system: ROS production in LPS-stimulated RAW 264.7 cells; assay: Intracellular ROS measurement (DCFH2-DA) in LPS-stimulated macrophages; format: cell-based, murine
Description: as §5
Generation of intracellular ROS in cells was analyzed using the fluorometric probe DCFH2-DA. After 24 h of treatment with GN, ORV, and their glucuronide metabolites, cells were washed with phosphate-buffered saline (PBS) and then 150 μL of DCFH2-DA (10 μM) was added. After 30 min at 37 °C, the fluorescence intensity was quantified using a microplate reader (FLUOstar Optima, BMG Labtech) with a wavelength of excitation and emission of 485 and 520 nm, respectively. All experiments were performed in darkness. Results were expressed as ROS production (fluorescence intensity expressed as arbitrary units) compared to cells treated only with LPS (positive control).

[4] = system: TNF-α production in LPS-stimulated RAW 264.7 cells; assay: TNF-α production (ELISA) in LPS-stimulated macrophages; format: cell-based, murine; details: 24 h
Description: as §5
At 24 h after seeding, RAW 264.7 cells were exposed to LPS (0.1 μg/mL) in the absence or presence of ORV, GN (10 and 50 μM), and their metabolites (50 and 200 μM). After 24 h of exposure, IL-1β and TNF-α concentrations were measured in culture media supernatants by ELISA sandwich assay following the instructions of the manufacturer.

HMC3 cells = system: HMC3 cells; parameters: method as in PMID 32842681; details: HMC3 cells ref 8; cited from earlier work
[5] = in vivo, 400 umol/kg; cited from earlier work
[6] = cited from earlier work
RAW 264.7 cells [7] = details: cited from earlier work
macrophage cell line = details: 100 μM, 18 h incubation ref 6; cited from earlier work
[8] = formation of the glucuronide from ORV
[9] = incubation of parent ORV or GN with human S9, UPLC–DAD–MS
[10] = formation of the glucuronide from GN
[11] = between 25 and 50 μM (summary statement)

For `O=C(O)[C@H]1O[C@@H](Oc2cc(O)ccc2/C=C\c2cc(O)cc(O)c2)[C@H](O)[C@@H](O)[C@@H]1O` (relative stereo) [c-ORV-2′G, cis-oxyresveratrol-2′-O-glucuronide], the “metabolite formed/detected in samples” value (human liver S9 fractions) was “very low” and the “metabolite formed/detected in samples” value (rat liver S9 fractions) was “very low”.
In the case of `O=C(O)[C@H]1O[C@@H](Oc2cc(O)cc(/C=C\c3ccc(O)cc3O)c2)[C@H](O)[C@@H](O)[C@@H]1O` (relative stereo) [c-ORV-3G, cis-oxyresveratrol-3-O-glucuronide], the Vmax/Km (human liver S9 fractions) is reported as 0.159 ± 0.066 μL min^–1 mg^–1 of protein, the Vmax (human liver S9 fractions; [8]) is reported as 13.01 ± 1.04 nmol min^–1 mg^–1 of protein and the Vmax/Km (rat liver S9 fractions) is reported as 0.073 ± 0.044 μL min^–1 mg^–1 of protein. For the same compound, the Vmax (rat liver S9 fractions; [8]) was 31.34 ± 5.6 nmol min^–1 mg^–1 of protein.
With `O=C(O)C1OC(Oc2ccc(C=Cc3cc(O)cc(O)c3)c(O)c2)C(O)C(O)C1O` (stereo not shown) [ORV-4′G] the “metabolite formed/detected in samples” value (human liver S9 fractions; [9]) was “neither the trans nor the cis form of ORV-4′G was detected” and the “metabolite formed/detected in samples” value (rat liver S9 fractions; incubation of parent ORV or GN with rat S9, UPLC–DAD–MS) was “neither the trans nor the cis form of ORV-4′G was detected”.
For `O=C(O)[C@H]1O[C@@H](Oc2cc(O)cc(/C=C/c3ccc(O)cc3)c2)[C@H](O)[C@@H](O)[C@@H]1O` [resveratrol-3-O-glucuronide], the cytotoxic effect (macrophages) is given as “neither resveratrol-3-O-glucuronide nor resveratrol-4′-O-glucuronide had any cytotoxic effect”.
In the case of `O=C(O)[C@H]1O[C@@H](Oc2ccc(/C=C/c3cc(O)cc(O)c3)cc2)[C@H](O)[C@@H](O)[C@@H]1O` [resveratrol-4′-O-glucuronide], the cytotoxic effect (macrophages) is listed as “neither resveratrol-3-O-glucuronide nor resveratrol-4′-O-glucuronide had any cytotoxic effect”.
With `O=C(O)[C@H]1O[C@@H](Oc2cccc(O)c2/C=C/c2cc(O)cc(O)c2)[C@H](O)[C@@H](O)[C@@H]1O` [t-GN-2′G, trans-gnetol-2′-O-glucuronide] the Vmax (human liver S9 fractions; [10]) was 2.48 ± 0.31 nmol min^–1 mg^–1 of protein and the Vmax (rat liver S9 fractions; [10]) was 6.88 ± 0.86 nmol min^–1 mg^–1 of protein.
In the case of `O=C(O)[C@H]1O[C@@H](Oc2cc(O)cc(/C=C/c3c(O)cccc3O)c2)[C@H](O)[C@@H](O)[C@@H]1O` [t-GN-3G, trans-gnetol-3-O-glucuronide], the “metabolite formed/detected in samples” value (human liver S9 fractions; [9]) is reported as “very low quantities”.
For `Oc1cc(O)cc(/C=C/c2ccc(O)cc2O)c1` [t-ORV, trans-2′,3,4′,5-tetrahydroxystilbene], the “ability to metabolize ORV into glucuronides, rats versus humans (sum of Vmax/Km)” value (rat liver S9 fractions; rat, human, pH 7.4) was over 2 fold, the “concentration from which toxic (MTT)” value (RAW 264.7 cells [1]) was at least 100 µM and the “reduction of NO production” value ([2]; 24 h, LPS 0.1 μg/mL) was 27.1%. The “concentration from which NO production significantly reduced” value ([2]; 24 h, LPS 0.1 μg/mL) was at least 10 µM, the “decrease of NO production” value [2, 11] was “more than 50%” and the “reduction of ROS” value ([3]; 50 μM, 24 h, LPS 0.1 μg/mL) was “more than 70%”. For the same compound, the “decrease of ROS production” value [3, 11] was “more than 50%”, the “reduction of TNF-α” value ([4]; 50 μM) was 30% and the “concentration from which toxic” value (HMC3 cells) was at least 80 µM. For the same compound, the total bioavailability [5] was 9.1-15.2%, the “AUC0–t” value ([6]; rat, in vivo, po) was 5133 μg h L^–1 and the concentration in plasma ([6]; rats, oral administration of ORV 100 mg/kg ref 19) was about 10 µM. The “IC30 for cell cytotoxicity” value (RAW 264.7 cells [7]) was “higher than 50 μM” and the cytotoxic effect (macrophage cell line) was “did not observe any cytotoxic effect”.
In the case of `O=C(O)[C@H]1O[C@@H](Oc2cc(O)ccc2/C=C/c2cc(O)cc(O)c2)[C@H](O)[C@@H](O)[C@@H]1O` [t-ORV-2′G, trans-oxyresveratrol-2′-O-glucuronide], the Vmax (human liver S9 fractions; [8]) is reported as 12.93 ± 1.47 nmol min^–1 mg^–1 of protein, the Vmax (rat liver S9 fractions; [8]) is reported as 2.67 ± 0.32 nmol min^–1 mg^–1 of protein and the “reduction of NO production” value ([2]; 24 h, LPS 0.1 μg/mL) is reported as 29%.
In the case of `O=C(O)[C@H]1O[C@@H](Oc2cc(O)cc(/C=C/c3ccc(O)cc3O)c2)[C@H](O)[C@@H](O)[C@@H]1O` [t-ORV-3G, trans-oxyresveratrol-3-O-glucuronide], the Vmax (human liver S9 fractions; [8]) is reported as 11.41 ± 2.32 nmol min^–1 mg^–1 of protein, the Vmax (rat liver S9 fractions; [10]) is reported as 36 ± 3.57 nmol min^–1 mg^–1 of protein and the Vmax (rat liver S9 fractions; [8]) is reported as 319.1 ± 69.77 nmol min^–1 mg^–1 of protein. For the same compound, the “reduction of NO production” value ([2]; 24 h, LPS 0.1 μg/mL) was 31%, the “reduction of ROS production, at the most” value ([3]; ORV metabolites, 50–200 μM tested, concentration not given, 24 h, LPS) was “more than 80%” and the “reduction of TNF-α” value ([4]; 200 μM) was 70%.
For `O=C(O)[C@H]1O[C@@H](Oc2ccc(/C=C/c3cc(O)cc(O)c3)c(O)c2)[C@H](O)[C@@H](O)[C@@H]1O` [t-ORV-4′G, trans-oxyresveratrol-4′-O-glucuronide], the “reduction of NO production” value ([2]; 24 h, LPS 0.1 μg/mL) was 27.2%.
